From paper PMC6061696 (2018)

Columns and labels:
[1] = system: NSR U14C mutant (C14+) (RNA, riboswitch, C14 protonated at N3 in the folded complex (transcribed as ordinary C)) GGCUGCUUGUCCUCUAAUGGUCCAGUC; experiment: 1H NMR imino spectra; conditions: no added monovalent ions; complex also in K+ buffers; 50 mM BisTris pH 6.3, 10 °C; ligand in slight excess
[2] = system: neomycin sensing riboswitch (NSR), wild-type (U14) (RNA, riboswitch) GGCUGCUUGUCCUUUAAUGGUCCAGUC; experiment: 1H NMR imino spectra; conditions: no added monovalent ions; complex also in K+ buffers; 50 mM BisTris pH 6.3, 10 °C; ligand in slight excess; U10, U21 signals remain at 40 °C

binding [1]: yes
binding [2]: yes
SMILES: NC[C@H]1O[C@H](O[C@H]2[C@H](O[C@@H]3O[C@H](CO)[C@@H](O)[C@H]3O)[C@@H](O)[C@H](N)C[C@@H]2N)[C@H](N)[C@@H](O)[C@@H]1O
